Results on one substance are retold here after article PMC7346179, “Fe Porphyrin-Based SOD Mimic and Redox-Active Compound, (OH)FeTnHex-2-PyP^4+, in a Rodent Ischemic Stroke (MCAO) Model: Efficacy and Pharmacokinetics as Compared to Its Mn Analogue, (H2O)MnTnHex-2-PyP^5+” (Antioxidants, 2020).

The nature of series [1]: 3-day PK study in healthy mice. The format is in vivo. Particulars: for liver level: 6 h after last injection. The method, then:
Samples were prepared as described in [10] with modifications to accommodate the small tissue sizes and enhance the detection sensitivity. Quantitative liquid chromatography electrospray-ionization tandem mass spectrometry (LCMS/MS) analysis was performed on a Shimadzu 20A series HPLC (LC)—Applied Biosystems/MDS Sciex API 3200 QTrap or API 4000 QTrap tandem-mass spectrometer (MS/MS) as described earlier. The use of heptafluorobutyric acid (HFBA) mobile phase modifier as an ion-pairing agent increases the overall lipophilicity and volatility, which increases the retention and ionization efficiency of the analytes, affording an abundance of HFBA-associated ions. […] Since oxygen atoms are buried within the porphyrin cavity and thus not easily solvated, these compounds maintain similar redox properties and lipophilicity as their parent hexyl analogs, which makes them co-elute from the HPLC column and thus can be used as internal standards. (OH)FeTnBuOE-2-PyP^4+ was prepared as described for other Fe(III) N-alkylpyridylporphyrins and analogous (H2O)MnTnBuOE-2-PyP^5+ [13, 16]. The solvents employed were: A = 95:5 H2O:MeCN (0.1% HFBA); B = MeCN (0.1% HFBA). […] With the chosen solvent system, all four atropoisomers collapsed into a single peak, enhancing the sensitivity of the method to as low as 0.5 nM (nanomoles per L of tissue homogenate). Analyses were performed using a Phenomenex Luna C18 guard cartridge (ID × L, 2 × 4 mm) only. […] Their structures are also shown. Calibration samples in the 1–300 nM or 0.1–30 μM range (depending on the expected levels of MP) were prepared by adding known amounts of serially diluted pure standards into the plasma or homogenates of related tissues. The response was calculated as the ratio between the standard peak area and the internal standard peak area.
The study was designed to follow the dosing regime in a 3-day mouse MCAO efficacy study. […] Three mice were used per compound in each study. Mice were sacrificed 6 h after the last injection at day 3 and blood and tissues (liver and brain) collected. Blood was centrifuged at 2500 rpm for 10 min and plasma was harvested. Plasma and tissues were analyzed on porphyrin content by LCMS/MS.

A further series relates to mouse MCAO stroke model. Description: 3-day mouse MCAO efficacy study. It is filed as in vivo, mice. Here is the method: We performed a mouse MCAO study to define a dose of FeHex for a larger rat MCAO study. The 81 C57Bl/6J mice (8–10 weeks old) were subjected to 90 min of MCAO right hemisphere occlusion. Mice were fasted overnight before injury. They were under isoflurane anesthesia during ischemia, and the pericranial temperature was automatically controlled at 37 °C using a surface heating and cooling system. Ischemia was made through a small window on the left temporal bone, and the main trunk of the middle cerebral artery was transiently tied with a fine silk suture for 90 min. Muscle and skin layers were closed after ischemia/reperfusion. Mice were allowed to awake and survive for 3 days. […] Mice were sacrificed under deep anesthesia at 3 days post-ischemia/reperfusion. The brain was quickly frozen in −20 °C 2-methybutane and stored in the freezer for histological analysis. Liver and brain were taken for LCMS/MS analysis of the levels of FeHex. Body weight, rotarod performance, and Corner test were assessed before and 3 days after injury. Neurological deficit (neuroscore) and infarct volume were evaluated at 3 days after injury.
The rotarod test was performed on the day before surgery and 3 days after ischemia/reperfusion. Three trials were performed with a 15-min intra-trial rest. Mice were placed on the rod and then the machine was started. The speed was accelerated from 4 turns/min to 40 turns per min. The latency to fall from the rod was automatically recorded. The data are presented in % and are calculated as [(reading after injury)/(reading before surgery-baseline reading)] × 100. Neurological deficit was assessed based on the neuroscore system we previously used that includes the general status and motor and sensory functions. For the corner test, two clean boards were placed in “V” fashion at an angle of 30° relative to the walking axes and mice were left to walk in towards the apex of the “V”. Mice usually make left turns more frequently when injury is severe enough. The left turn was calculated from the number of left (L) turn/total turns (L + Right turn). Normal animals would have as many left as right turns (50% = normal). When all turns are to the left, the value at y-axis is 100%, the most severe score. Body weight loss is expressed as a difference in body weight at 3 days post-stroke minus body weight on the surgery day.

Where [2] appears, read: SC and IV 0.5 mg/kg twice daily 3 days.
Where [3] appears, read: 0.225 mg/kg IV twice daily 3 days.

“monohydroxo Fe(III) meso-tetrakis(N-n-hexylpyridinium-2yl)porphyrin [FeHex]” gave a liver level in series [1] (IV 0.5 mg/kg twice daily 3 days) of 290 nM. The same substance yielded a liver level in series [1] (SC 0.5 mg/kg twice daily 3 days) of 126 nM. In series [1] (setting [2]), the “liver levels relative to MnHex” value is on record as “much lower levels” and the “plasma levels relative to MnHex” value is reported as “Higher levels”. For the same substance, in the series on mouse MCAO stroke model (setting [3]), the neuroscore entry is listed as “improved”; the “p, Corner test vs vehicle” value turned out to be 0.09; the “p, body weight change vs vehicle” value is recorded as 0.0347; the “p, infarct volume vs vehicle” value turned out to be 0.48. Besides, in the series with mouse MCAO stroke model (setting [3]), the “p, neuroscore vs vehicle” value is 0.047 and the “p, rotarod vs vehicle” value was 0.59. Moreover, in the series with mouse MCAO stroke model (0.225 mg/kg IV twice daily 3 days, from 90 min post ischemia/reperfusion), the body weights entry is “improved”. Further, the “infarct volume relative to vehicle” value with mouse MCAO stroke model (0.05, 0.225 and 1 mg/kg IV twice daily 3 days) is “No significant change”.
